These results are taken from patent US11123337B2, “4-methylsulfonyl-substituted piperidine urea compounds” (MYOKARDIA, INC., priority 2015, dated 2021).

bovine cardiac myosin, sequence (Q9BE39 whole entry): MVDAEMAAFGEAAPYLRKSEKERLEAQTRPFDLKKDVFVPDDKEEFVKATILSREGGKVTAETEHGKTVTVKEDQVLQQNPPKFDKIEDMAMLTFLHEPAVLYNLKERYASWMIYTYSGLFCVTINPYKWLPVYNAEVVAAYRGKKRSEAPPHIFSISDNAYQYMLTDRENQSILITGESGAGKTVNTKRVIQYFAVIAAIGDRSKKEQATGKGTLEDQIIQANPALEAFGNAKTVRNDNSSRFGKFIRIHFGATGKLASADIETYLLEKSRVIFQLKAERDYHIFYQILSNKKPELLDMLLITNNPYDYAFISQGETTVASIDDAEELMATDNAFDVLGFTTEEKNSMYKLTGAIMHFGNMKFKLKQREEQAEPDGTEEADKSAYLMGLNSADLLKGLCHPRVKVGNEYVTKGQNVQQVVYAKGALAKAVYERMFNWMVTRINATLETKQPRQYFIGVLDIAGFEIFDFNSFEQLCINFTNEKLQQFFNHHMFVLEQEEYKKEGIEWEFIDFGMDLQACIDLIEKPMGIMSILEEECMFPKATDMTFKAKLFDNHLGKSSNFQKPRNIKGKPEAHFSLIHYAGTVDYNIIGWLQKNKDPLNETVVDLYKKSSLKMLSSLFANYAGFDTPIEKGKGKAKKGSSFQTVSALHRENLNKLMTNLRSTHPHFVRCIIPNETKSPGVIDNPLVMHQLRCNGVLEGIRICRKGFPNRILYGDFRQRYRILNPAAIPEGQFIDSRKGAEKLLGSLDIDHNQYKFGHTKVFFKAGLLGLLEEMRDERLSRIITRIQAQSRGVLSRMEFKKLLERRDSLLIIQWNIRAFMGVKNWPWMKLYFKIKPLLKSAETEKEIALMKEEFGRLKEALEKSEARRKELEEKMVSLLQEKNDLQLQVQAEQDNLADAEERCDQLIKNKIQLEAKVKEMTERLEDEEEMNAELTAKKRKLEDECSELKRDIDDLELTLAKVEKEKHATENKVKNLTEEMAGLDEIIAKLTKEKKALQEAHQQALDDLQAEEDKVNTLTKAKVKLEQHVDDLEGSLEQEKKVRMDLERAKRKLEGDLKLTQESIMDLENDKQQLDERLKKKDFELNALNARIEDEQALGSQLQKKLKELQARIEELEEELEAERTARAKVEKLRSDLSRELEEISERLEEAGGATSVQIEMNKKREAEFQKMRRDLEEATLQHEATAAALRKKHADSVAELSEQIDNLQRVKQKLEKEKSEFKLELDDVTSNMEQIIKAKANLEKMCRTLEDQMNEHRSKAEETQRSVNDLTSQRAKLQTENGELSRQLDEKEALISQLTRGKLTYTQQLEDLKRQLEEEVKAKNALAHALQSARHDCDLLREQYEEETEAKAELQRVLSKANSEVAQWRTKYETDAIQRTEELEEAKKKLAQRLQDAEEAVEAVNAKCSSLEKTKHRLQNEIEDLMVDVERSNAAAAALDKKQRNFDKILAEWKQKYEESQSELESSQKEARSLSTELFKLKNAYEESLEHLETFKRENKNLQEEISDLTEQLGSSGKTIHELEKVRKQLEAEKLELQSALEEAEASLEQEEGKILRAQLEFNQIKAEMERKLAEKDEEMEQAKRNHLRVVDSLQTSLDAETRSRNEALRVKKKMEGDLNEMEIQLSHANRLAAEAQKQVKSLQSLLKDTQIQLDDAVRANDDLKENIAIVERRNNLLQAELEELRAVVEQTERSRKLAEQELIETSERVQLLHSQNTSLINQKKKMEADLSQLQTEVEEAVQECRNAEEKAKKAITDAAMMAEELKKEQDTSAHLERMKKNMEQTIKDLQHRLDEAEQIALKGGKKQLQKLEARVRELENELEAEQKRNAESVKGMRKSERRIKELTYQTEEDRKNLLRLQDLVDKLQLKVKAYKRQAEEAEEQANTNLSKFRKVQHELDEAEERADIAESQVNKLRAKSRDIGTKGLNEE
bovine cardiac myosin, sequence (P85100 whole entry partner): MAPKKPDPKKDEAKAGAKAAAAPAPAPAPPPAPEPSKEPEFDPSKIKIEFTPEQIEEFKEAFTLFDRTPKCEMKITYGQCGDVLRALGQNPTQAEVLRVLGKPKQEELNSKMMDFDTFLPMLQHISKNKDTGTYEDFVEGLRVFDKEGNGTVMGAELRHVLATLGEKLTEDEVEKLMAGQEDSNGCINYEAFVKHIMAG
bovine cardiac myosin, sequence (Q3SZE5 whole entry partner): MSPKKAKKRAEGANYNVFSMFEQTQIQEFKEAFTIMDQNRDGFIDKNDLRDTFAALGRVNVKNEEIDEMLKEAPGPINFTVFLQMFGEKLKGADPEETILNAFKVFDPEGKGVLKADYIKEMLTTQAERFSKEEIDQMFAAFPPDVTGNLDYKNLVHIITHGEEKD

The experiment concerns the target bovine cardiac myosin (Bos taurus, UniProt Q9BE39). Description: Myosin activation assay (PK/LDH-coupled ATPase, bovine cardiac myofibrils). The class given is biochemical. The following applies: AC20 = concentration at which total response is increased by twenty percent. The essentials:
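Values are the concentrations raising the ATPase rate by 20% or 50% over DMSO, from 10-point dose responses fitted with four parameters. Rate is NADH loss at 340 nm via PK/LDH coupling, read 15 min at room temperature, in pH 6.8 PIPES with 50 μM ATP. Bovine cardiac myofibrils were held at pCa ~6 or pCa 10.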
As for `C[C@@](F)(C1CCN(C(=O)Nc2ccnnc2)CC1)S(=O)(=O)c1cccc(F)c1` [Compound 279, (S)-4-(1-fluoro-1-((3-fluorophenyl)sulfonyl)ethyl)-N-(pyridazin-4-yl)piperidine-1-carboxamide], the “Myosin Activation (AC20)” value is given as “+ (+ represents myosin activation value AC20 > 5 μM)”.

For `Cn1nccc1S(=O)(=O)C(C)(F)C1CCN(C(=O)Nc2ccon2)CC1` (centres unmarked) [Compound 280, 4-(1-fluoro-1-((1-methyl-1H-pyrazol-5-yl)sulfonyl)ethyl)-N-(isoxazol-3-yl)piperidine-1-carboxamide], the “Myosin Activation (AC20)” value is recorded as “+ (+ represents myosin activation value AC20 > 5 μM)”.

Consider `Cn1cc(S(=O)(=O)C(C)(F)C2CCN(C(=O)Nc3ccnnc3)CC2)c(C(F)(F)F)n1` (centres unmarked) [Compound 281, 4-(1-fluoro-1-((1-methyl-3-(trifluoromethyl)-1H-pyrazol-4-yl)sulfonyl)ethyl)-N-(pyridazin-4-yl)piperidine-1-carboxamide], for which the “Myosin Activation (AC20)” value was “++ (++ represents myosin activation value AC20 from 2 μM-5 μM)”.

With `CC(F)(C1CCN(C(=O)Nc2ccon2)CC1)S(=O)(=O)c1cccc(C#N)c1` (centres unmarked) [Compound 282, 4-(1-((3-cyanophenyl)sulfonyl)-1-fluoroethyl)-N-(isoxazol-3-yl)piperidine-1-carboxamide], the “Myosin Activation (AC20)” value is given as “++ (++ represents myosin activation value AC20 from 2 μM-5 μM)”.

For the compound `CC(F)(C1CCN(C(=O)Nc2ccon2)CC1)S(=O)(=O)c1ccc(C#N)cc1` (centres unmarked) [Compound 283, 4-(1-((4-cyanophenyl)sulfonyl)-1-fluoroethyl)-N-(isoxazol-3-yl)piperidine-1-carboxamide], the “Myosin Activation (AC20)” value is “++ (++ represents myosin activation value AC20 from 2 μM-5 μM)”.

Turning to `C[C@](F)(C1CCN(C(=O)Nc2ccon2)CC1)S(=O)(=O)c1cccc(F)c1` [Compound 284, (R)-4-(1-fluoro-1-((3-fluorophenyl)sulfonyl)ethyl)-N-(isoxazol-3-yl)piperidine-1-carboxamide], the “Myosin Activation (AC20)” value was “+++ (+++ represents myosin activation value AC20 < 2 μM)”.

With `C[C@@](F)(C1CCN(C(=O)Nc2ccon2)CC1)S(=O)(=O)c1cccc(F)c1` [Compound 285, (S)-4-(1-fluoro-1-((3-fluorophenyl)sulfonyl)ethyl)-N-(isoxazol-3-yl)piperidine-1-carboxamide], the “Myosin Activation (AC20)” value was “+ (+ represents myosin activation value AC20 > 5 μM)”.

With `C[C@](F)(C1CCN(C(=O)Nc2ccc(CO)nc2)CC1)S(=O)(=O)c1cccc(F)c1` [Compound 286, (R)-4-(1-fluoro-1-((3-fluorophenyl)sulfonyl)ethyl)-N-(6-(hydroxymethyl)pyridin-3-yl)piperidine-1-carboxamide], the “Myosin Activation (AC20)” value is on record as “+ (+ represents myosin activation value AC20 > 5 μM)”.

On to `Cn1cc(S(=O)(=O)[C@@](C)(F)C2CCN(C(=O)Nc3cccnc3)CC2)c(C(F)F)n1` [Compound 288, (R)-4-(1-((3-(difluoromethyl)-1-methyl-1H-pyrazol-4-yl)sulfonyl)-1-fluoroethyl)-N-(pyridin-3-yl)piperidine-1-carboxamide], for which the “Myosin Activation (AC20)” value is “++ (++ represents myosin activation value AC20 from 2 μM-5 μM)”.

On to `Cn1cc(S(=O)(=O)[C@@](C)(F)C2CCN(C(=O)Nc3cn[nH]c3)CC2)c(C(F)F)n1` [Compound 289, (R)-4-(1-((3-(difluoromethyl)-1-methyl-1H-pyrazol-4-yl)sulfonyl)-1-fluoroethyl)-N-(1H-pyrazol-4-yl)piperidine-1-carboxamide], for which the “Myosin Activation (AC20)” value is “++ (++ represents myosin activation value AC20 from 2 μM-5 μM)”.

Consider `Cn1cc(S(=O)(=O)[C@@](C)(F)C2CCN(C(=O)Nc3cc[nH]n3)CC2)c(C(F)F)n1` [Compound 290, (R)-4-(1-((3-(difluoromethyl)-1-methyl-1H-pyrazol-4-yl)sulfonyl)-1-fluoroethyl)-N-(1H-pyrazol-3-yl)piperidine-1-carboxamide], for which the “Myosin Activation (AC20)” value is recorded as “++ (++ represents myosin activation value AC20 from 2 μM-5 μM)”.

As to `C[C@@](F)(C1CCN(C(=O)Nc2ccc(C#N)nc2)CC1)S(=O)(=O)c1cccc(F)c1` [Compound 291, (S)-N-(6-cyanopyridin-3-yl)-4-(1-fluoro-1-((3-fluorophenyl)sulfonyl)ethyl)piperidine-1-carboxamide], the “Myosin Activation (AC20)” value is on record as “+ (+ represents myosin activation value AC20 > 5 μM)”.

Take `C[C@](F)(C1CCN(C(=O)Nc2ccc(C#N)nc2)CC1)S(=O)(=O)c1cccc(F)c1` [Compound 292, (R)-N-(6-cyanopyridin-3-yl)-4-(1-fluoro-1-((3-fluorophenyl)sulfonyl)ethyl)piperidine-1-carboxamide]: the “Myosin Activation (AC20)” value is given as “++ (++ represents myosin activation value AC20 from 2 μM-5 μM)”.

Take `C[C@](F)(C1CCN(C(=O)Nc2ccnc(C#N)c2)CC1)S(=O)(=O)c1cccc(F)c1` [Compound 293, (R)-N-(2-cyanopyridin-4-yl)-4-(1-fluoro-1-((3-fluorophenyl)sulfonyl)ethyl)piperidine-1-carboxamide]: the “Myosin Activation (AC20)” value is recorded as “+ (+ represents myosin activation value AC20 > 5 μM)”.

With `Cc1ccc(NC(=O)N2CCC(C(C)(F)S(=O)(=O)c3cccc(F)c3)CC2)cn1` (centres unmarked) [Compound 295, 4-(1-fluoro-1-((3-fluorophenyl)sulfonyl)ethyl)-N-(6-methylpyridin-3-yl)piperidine-1-carboxamide], the “Myosin Activation (AC20)” value is “+ (+ represents myosin activation value AC20 > 5 μM)”.

Regarding `Cn1nc(C(F)(F)F)cc1S(=O)(=O)[C@@](C)(F)C1CCN(C(=O)Nc2ccnc(F)c2)CC1` [Compound 296, (R)-4-(1-fluoro-1-((1-methyl-3-(trifluoromethyl)-1H-pyrazol-5-yl)sulfonyl)ethyl)-N-(2-fluoropyridin-4-yl)piperidine-1-carboxamide], the “Myosin Activation (AC20)” value is “+++ (+++ represents myosin activation value AC20 < 2 μM)”.

For `Cn1cc(S(=O)(=O)[C@@](C)(F)C2CCN(C(=O)Nc3ccnc(F)c3)CC2)c(C(F)F)n1` [Compound 297, (R)-4-(1-((3-(difluoromethyl)-1-methyl-1H-pyrazol-4-yl)sulfonyl)-1-fluoroethyl)-N-(2-fluoropyridin-4-yl)piperidine-1-carboxamide], the “Myosin Activation (AC20)” value is reported as “+++ (+++ represents myosin activation value AC20 < 2 μM)”.

With `Cn1cc(S(=O)(=O)[C@@](C)(F)C2CCN(C(=O)Nc3ccc(C#N)nc3)CC2)c(C(F)F)n1` [Compound 299, (R)-N-(6-cyanopyridin-3-yl)-4-(1-((3-(difluoromethyl)-1-methyl-1H-pyrazol-4-yl)sulfonyl)-1-fluoroethyl)piperidine-1-carboxamide], the “Myosin Activation (AC20)” value is listed as “+++ (+++ represents myosin activation value AC20 < 2 μM)”.

With `Cn1cc(S(=O)(=O)[C@@](C)(F)C2CCN(C(=O)Nc3ccc(C(N)=O)nc3)CC2)c(C(F)F)n1` [Compound 300, (R)-5-(4-(1-((3-(difluoromethyl)-1-methyl-1H-pyrazol-4-yl)sulfonyl)-1-fluoroethyl)piperidine-1-carboxamido)picolinamide], the “Myosin Activation (AC20)” value is listed as “++ (++ represents myosin activation value AC20 from 2 μM-5 μM)”.

In the case of `C[C@](F)(C1CCN(C(=O)Nc2cnc3c(c2)CNC3=O)CC1)S(=O)(=O)c1cccc(F)c1` [Compound 301, (R)-4-(1-fluoro-1-((3-fluorophenyl)sulfonyl)ethyl)-N-(7-oxo-6,7-dihydro-5H-pyrrolo[3,4-b]pyridin-3-yl)piperidine-1-carboxamide], the “Myosin Activation (AC20)” value is recorded as “++ (++ represents myosin activation value AC20 from 2 μM-5 μM)”.

Consider `C[C@H](O)c1cc(NC(=O)N2CCC([C@](C)(F)S(=O)(=O)c3cccc(F)c3)CC2)ccn1` [Compound 302, 4-((R)-1-fluoro-1-((3-fluorophenyl)sulfonyl)ethyl)-N-(2-((S)-1-hydroxyethyl)pyridin-4-yl)piperidine-1-carboxamide], for which the “Myosin Activation (AC20)” value is reported as “+ (+ represents myosin activation value AC20 > 5 μM)”.

Regarding `C[C@@H](O)c1cc(NC(=O)N2CCC([C@](C)(F)S(=O)(=O)c3cccc(F)c3)CC2)ccn1` [Compound 303, 4-((R)-1-fluoro-1-((3-fluorophenyl)sulfonyl)ethyl)-N-(2-((R)-1-hydroxyethyl)pyridin-4-yl)piperidine-1-carboxamide], the “Myosin Activation (AC20)” value is “+ (+ represents myosin activation value AC20 > 5 μM)”.

On to `C[C@@H](O)c1cc(NC(=O)N2CCC([C@@](C)(F)S(=O)(=O)c3cn(C)nc3C(F)F)CC2)ccn1` [Compound 304, 4-((S)-1-((3-(difluoromethyl)-1-methyl-1H-pyrazol-4-yl)sulfonyl)-1-fluoroethyl)-N-(2-((R)-1-hydroxyethyl)pyridin-4-yl)piperidine-1-carboxamide], for which the “Myosin Activation (AC20)” value is given as “+ (+ represents myosin activation value AC20 > 5 μM)”.

As to `[2H]C([2H])([2H])n1cc(S(=O)(=O)[C@](F)(C2CCN(C(=O)Nc3ccon3)CC2)C([2H])([2H])[2H])c(C(F)F)n1` [Compound 305, (S)-4-(1-((3-(difluoromethyl)-1-(methyl-d3)-1H-pyrazol-4-yl)sulfonyl)-1-fluoroethyl-2,2,2-d3)-N-(isoxazol-3-yl)piperidine-1-carboxamide], the “Myosin Activation (AC20)” value is given as “+ (+ represents myosin activation value AC20 > 5 μM)”.

With `[2H]C([2H])([2H])n1cc(S(=O)(=O)[C@@](F)(C2CCN(C(=O)Nc3ccon3)CC2)C([2H])([2H])[2H])c(C(F)F)n1` [Compound 306, (R)-4-(1-((3-(difluoromethyl)-1-(methyl-d3)-1H-pyrazol-4-yl)sulfonyl)-1-fluoroethyl-2,2,2-d3)-N-(isoxazol-3-yl)piperidine-1-carboxamide], the “Myosin Activation (AC20)” value is on record as “+++ (+++ represents myosin activation value AC20 < 2 μM)”.

For the compound `COc1ccc(S(=O)(=O)[C@](C)(F)C2CCN(C(=O)Nc3ccon3)CC2)cn1` [Compound 307, (S)-4-(1-fluoro-1-((6-methoxypyridin-3-yl)sulfonyl)ethyl)-N-(isoxazol-3-yl)piperidine-1-carboxamide], the “Myosin Activation (AC20)” value is given as “+ (+ represents myosin activation value AC20 > 5 μM)”.
